Each structure is given as a SMILES string. A value given as a limit tells only on which side of the number the result lay.

Here are results for 3 molecules from patent US20160030440A1, “ANTI-TUMORAL COMPOSITION COMPRISING A PI3KBETA-SELECTIVE INHIBITOR AND A PI3KALPHA-SELECTIVE INHIBITOR” (SANOFI, priority 2013, published 2016).

Assay [1] has as its system HEC-116 cells. The experiment in a line: In vitro anti-proliferative activity, CelltiterGlo, ray design. The format is cell-based, human. The conditions noted are these: HEC-116, single agent, 96 hours; brackets: interval. As for the experimental part: The human endometrium adenocarcinoma cell line HEC-116 cell line was purchased at JCRB (Ref number JCRB1124 Batch 11072005). The HEC-116 cells were cultured in MEMa medium supplemented with 15% FBS and 2 mM L-Glutamine.
Compounds (I) and (II) dilutions were prepared according to the material and methods of example 1. The final concentrations tested were defined by ray design method described below. The DMSO concentration was 0.1% in controls and in all treated wells.
(§1) A ray design method was used allowing the characterization of the interaction of the two compounds for several fixed proportion in the mixture. The ray design includes one ray for each single agent and 19 combination rays.
HEC-116 cells were plated at 3,000 cells/well in 384-well plates in appropriate culture medium and incubated for 6 hours at 37° C., 5% CO2. […] Cell growth was evaluated by measuring intracellular ATP using CelltiterGlo® reagent (Promega) according to the manufacturer's protocol. Briefly, CellTiterGlo® was added to each plate, incubated for 1 hour then luminescent signal was read on the MicroBeta Luminescent plate reader.
Three experiments have been performed on this cell line. For each experiment, two 384-well plates were used allowing working with two replicates for combination rays and with four replicates for single agent rays. […]

Assay [2] concerns the target T1, mTOR (Homo sapiens, UniProt P42345). Nature of the assay: mTOR inhibition. The format is biochemical. The conditions noted are these: up to 10 μM.
The subject of assay [3] is PC-3 cells. Nature of the assay: In vitro anti-proliferative activity, CelltiterGlo, ray design. The format is cell-based, human. The conditions noted are these: PC-3, single agent, 96 hours; brackets: interval. The protocol:
The human prostate cancer PC-3 cell line was purchased at ATCC (Ref number CRL-1435). The PC-3 cells were cultured in DMEM High Glucose medium supplemented with 10% FBS and 2 mM L-Glutamine.
They were diluted serially, in DMSO following a 3 or 3.3-fold dilution step: then each solution was diluted 50-fold in culture medium containing 10% serum before being added onto cells with a 20-fold dilution factor. The DMSO concentration was 0.1% in controls and in all treated wells.
as §1
PC-3 cells were plated at 1,000 cells/well in 384-well plates in appropriate culture medium and incubated for 6 hours at 37° C., 5% CO2. […] Cell growth was evaluated by measuring intracellular ATP using CelltiterGlo® reagent (Promega) according to the manufacturer's protocol. Briefly, CellTiterGlo® was added to each plate, incubated for 1 hour then luminescent signal was read on the MicroBeta Luminescent plate reader. Three experiments have been performed on the cell line. […]
Growth inhibition percentage (GI %) was calculated according to the following equation: […]

Assay [4] addresses T1, mTOR. The settings on record: PI3Kβ versus mTOR; cited from earlier work.
Assay [5] deals with 294 other kinases. The conditions noted are these: at 10 μM; cited from earlier work.
The target of assay [6] is PI3Kalpha (Homo sapiens, UniProt P42336). The settings on record: PI3Kβ versus PI3Kalpha; cited from earlier work.
Sequence of PI3Kalpha (P42336 whole entry, species assumed): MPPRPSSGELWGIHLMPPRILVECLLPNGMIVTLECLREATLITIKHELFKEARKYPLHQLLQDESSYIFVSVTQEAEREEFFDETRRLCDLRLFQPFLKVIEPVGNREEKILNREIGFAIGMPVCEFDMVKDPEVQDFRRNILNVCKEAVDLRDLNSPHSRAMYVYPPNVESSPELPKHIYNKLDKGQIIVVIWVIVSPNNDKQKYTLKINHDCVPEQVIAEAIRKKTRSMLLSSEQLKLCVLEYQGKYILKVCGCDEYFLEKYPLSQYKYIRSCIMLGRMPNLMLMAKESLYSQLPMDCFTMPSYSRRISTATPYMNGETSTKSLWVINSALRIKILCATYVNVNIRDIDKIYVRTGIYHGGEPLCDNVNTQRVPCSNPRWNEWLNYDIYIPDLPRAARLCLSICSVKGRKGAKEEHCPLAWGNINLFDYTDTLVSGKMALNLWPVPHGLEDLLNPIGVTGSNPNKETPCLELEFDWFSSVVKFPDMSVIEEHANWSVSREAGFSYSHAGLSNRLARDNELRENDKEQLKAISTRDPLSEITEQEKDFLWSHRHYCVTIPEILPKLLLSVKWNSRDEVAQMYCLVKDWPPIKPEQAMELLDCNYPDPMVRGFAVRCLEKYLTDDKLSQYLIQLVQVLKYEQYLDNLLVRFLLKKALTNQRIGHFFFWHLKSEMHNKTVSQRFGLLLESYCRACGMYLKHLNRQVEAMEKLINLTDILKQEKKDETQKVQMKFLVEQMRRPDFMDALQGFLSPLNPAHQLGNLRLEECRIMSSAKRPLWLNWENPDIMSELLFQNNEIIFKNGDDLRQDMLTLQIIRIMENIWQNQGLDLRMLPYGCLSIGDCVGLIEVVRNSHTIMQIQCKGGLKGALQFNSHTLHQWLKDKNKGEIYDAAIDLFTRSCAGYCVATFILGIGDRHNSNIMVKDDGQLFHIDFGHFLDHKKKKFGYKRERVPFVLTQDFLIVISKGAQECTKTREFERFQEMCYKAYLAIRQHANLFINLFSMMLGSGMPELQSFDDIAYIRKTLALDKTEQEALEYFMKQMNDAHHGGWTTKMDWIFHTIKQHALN
Sequence of PI3Kalpha (P27986 whole entry partner, species assumed): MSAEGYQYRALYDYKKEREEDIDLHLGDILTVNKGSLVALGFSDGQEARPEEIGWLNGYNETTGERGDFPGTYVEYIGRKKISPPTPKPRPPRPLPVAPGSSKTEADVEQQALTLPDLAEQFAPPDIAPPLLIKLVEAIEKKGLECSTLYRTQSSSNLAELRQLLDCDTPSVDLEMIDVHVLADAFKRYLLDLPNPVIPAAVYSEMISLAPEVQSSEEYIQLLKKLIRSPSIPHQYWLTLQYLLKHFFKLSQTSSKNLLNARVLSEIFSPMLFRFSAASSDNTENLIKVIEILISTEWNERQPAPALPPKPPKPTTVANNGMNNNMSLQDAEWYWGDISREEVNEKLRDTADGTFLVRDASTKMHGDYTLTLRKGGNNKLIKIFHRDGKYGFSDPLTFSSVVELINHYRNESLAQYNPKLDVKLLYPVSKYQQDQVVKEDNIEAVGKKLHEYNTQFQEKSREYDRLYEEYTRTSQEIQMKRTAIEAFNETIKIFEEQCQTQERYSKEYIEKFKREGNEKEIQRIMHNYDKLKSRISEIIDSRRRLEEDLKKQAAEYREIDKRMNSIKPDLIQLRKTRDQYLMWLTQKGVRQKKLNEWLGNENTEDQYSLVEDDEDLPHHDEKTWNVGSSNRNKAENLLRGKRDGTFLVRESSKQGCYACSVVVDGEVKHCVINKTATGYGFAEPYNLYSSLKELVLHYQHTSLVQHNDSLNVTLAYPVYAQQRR
The target of assay [7] is PI3Kdelta (Homo sapiens, UniProt O00329). The settings on record: PI3Kβ versus PI3Kdelta; cited from earlier work.
Sequence of PI3Kdelta (O00329 whole entry, species assumed): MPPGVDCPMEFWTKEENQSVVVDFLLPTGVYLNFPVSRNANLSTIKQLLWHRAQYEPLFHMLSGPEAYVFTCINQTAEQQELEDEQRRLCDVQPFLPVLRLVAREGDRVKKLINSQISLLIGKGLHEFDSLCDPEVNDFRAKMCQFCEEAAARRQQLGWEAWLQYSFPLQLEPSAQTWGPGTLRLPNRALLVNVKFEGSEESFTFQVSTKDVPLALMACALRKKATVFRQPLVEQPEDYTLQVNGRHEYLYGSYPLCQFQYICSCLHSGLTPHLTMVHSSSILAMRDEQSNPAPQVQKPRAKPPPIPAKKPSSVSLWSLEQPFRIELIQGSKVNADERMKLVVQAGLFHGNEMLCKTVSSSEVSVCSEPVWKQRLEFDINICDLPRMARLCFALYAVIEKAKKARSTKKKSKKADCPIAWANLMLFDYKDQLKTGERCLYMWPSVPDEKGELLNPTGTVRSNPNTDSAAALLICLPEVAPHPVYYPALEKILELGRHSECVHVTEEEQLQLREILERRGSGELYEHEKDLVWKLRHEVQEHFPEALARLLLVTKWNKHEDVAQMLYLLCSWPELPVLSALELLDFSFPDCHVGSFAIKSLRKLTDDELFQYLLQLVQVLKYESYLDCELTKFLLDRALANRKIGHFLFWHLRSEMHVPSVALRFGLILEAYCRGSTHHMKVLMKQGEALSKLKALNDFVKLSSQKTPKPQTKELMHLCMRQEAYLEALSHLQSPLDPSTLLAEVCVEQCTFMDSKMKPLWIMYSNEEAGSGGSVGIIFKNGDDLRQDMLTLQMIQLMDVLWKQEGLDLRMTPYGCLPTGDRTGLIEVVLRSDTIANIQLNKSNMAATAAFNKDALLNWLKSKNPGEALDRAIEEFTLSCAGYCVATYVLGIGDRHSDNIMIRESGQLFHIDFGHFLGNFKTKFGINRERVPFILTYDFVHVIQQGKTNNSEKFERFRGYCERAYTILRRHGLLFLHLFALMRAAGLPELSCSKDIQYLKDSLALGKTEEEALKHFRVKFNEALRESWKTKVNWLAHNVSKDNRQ
Sequence of PI3Kdelta (P27986 whole entry partner, species assumed): as the sequence (P27986 whole entry partner, species assumed) above
Assay [8] addresses PI3Kgamma (Homo sapiens, UniProt P48736). The conditions noted are these: PI3Kβ versus PI3Kgamma; cited from earlier work.

Sequence of PI3Kgamma (P48736 whole entry, species assumed): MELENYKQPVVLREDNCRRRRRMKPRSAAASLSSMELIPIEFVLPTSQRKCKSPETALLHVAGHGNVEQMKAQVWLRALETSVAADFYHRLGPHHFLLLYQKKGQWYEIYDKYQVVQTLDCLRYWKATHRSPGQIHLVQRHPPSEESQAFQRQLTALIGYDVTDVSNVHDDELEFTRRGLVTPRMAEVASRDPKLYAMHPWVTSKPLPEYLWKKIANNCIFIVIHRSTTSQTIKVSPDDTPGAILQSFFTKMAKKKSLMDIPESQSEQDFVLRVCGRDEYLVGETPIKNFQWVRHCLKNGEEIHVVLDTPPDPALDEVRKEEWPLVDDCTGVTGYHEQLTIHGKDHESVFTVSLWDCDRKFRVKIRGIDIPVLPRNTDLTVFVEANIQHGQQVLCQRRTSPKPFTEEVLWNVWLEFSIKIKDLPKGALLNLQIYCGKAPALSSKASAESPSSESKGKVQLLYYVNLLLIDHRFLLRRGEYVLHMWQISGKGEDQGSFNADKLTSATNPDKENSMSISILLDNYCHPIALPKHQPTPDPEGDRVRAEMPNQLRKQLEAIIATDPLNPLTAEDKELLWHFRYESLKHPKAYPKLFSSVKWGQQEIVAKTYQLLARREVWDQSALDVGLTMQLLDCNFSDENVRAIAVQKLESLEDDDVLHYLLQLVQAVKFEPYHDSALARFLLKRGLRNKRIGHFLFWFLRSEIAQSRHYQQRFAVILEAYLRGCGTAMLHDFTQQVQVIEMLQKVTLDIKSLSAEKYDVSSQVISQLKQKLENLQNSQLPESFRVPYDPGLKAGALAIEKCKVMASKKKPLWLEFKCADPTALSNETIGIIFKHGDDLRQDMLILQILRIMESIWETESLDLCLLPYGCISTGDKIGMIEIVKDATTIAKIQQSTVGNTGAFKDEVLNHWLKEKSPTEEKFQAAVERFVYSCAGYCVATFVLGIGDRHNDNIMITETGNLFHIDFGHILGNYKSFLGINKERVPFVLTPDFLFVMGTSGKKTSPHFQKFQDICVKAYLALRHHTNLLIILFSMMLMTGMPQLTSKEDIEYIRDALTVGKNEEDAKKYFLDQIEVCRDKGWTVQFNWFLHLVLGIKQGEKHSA

In the case of `C[C@H]1Cc2ccccc2N1C(=O)Cc1nc(N2CCOCC2)cc(=O)[nH]1` [compound (I), 2-{2-[(2S)-2-methyl-2,3-dihydro-1H-indol-1-yl]-2-oxoethyl}-6-(morpholin-4-yl)pyrimidin-4(3H)-one], the “Absolute IC40 (growth inhibition 40%)” value in assay [1] was 12,400 nM; in assay [3] it was 20,200 nM. In addition, in assay [2], the “inhibition of mTOR” value was “not inhibit”.

`Cc1nc(NC(=O)N2CCC[C@H]2C(N)=O)sc1-c1ccnc(C(C)(C)C(F)(F)F)c1` [compound (II), (2S)-N1-[4-Methyl-5-[2-(2,2,2-trifluoro-1,1-dimethylethyl)-4-pyridinyl]-2-thiazolyl]-1,2-pyrrolidinedicarboxamide]: the “Absolute IC40 (growth inhibition 40%)” value was 8,630 nM in assay [1] and 14,700 nM in assay [3].

For `Cc1c(Cn2c(C)nc3c(C(=O)O)cc(N4CCOCC4)cc32)cccc1C(F)(F)F` [compound (III)], the “selectivity over mTOR” value in assay [4] was > 1000 fold. Moreover, in assay [5], the “inhibition of 294 other kinases” value is on record as “less than 30%”. Also, the “selectivity over PI3Kalpha” value in assay [6] is reported as > 1000 fold. For the same molecule, in assay [7], the “selectivity over PI3Kdelta” value is listed as 12 fold. The “selectivity over PI3Kgamma” value in assay [8] is > 1000 fold.
